# Source: patent US10105319B2 (Murray and Poole Enterprises Limited, priority 2013, dated 2018)
# Tests used:
# [1] = test system: patients with a first episode of acute pericarditis; settings: at 18 months; conventional treatment plus colchicine 0.5 to 1.0 mg/day for 3 months; p=0.004; cited from earlier work
# [2] = test system: patients with a first episode of recurrent pericarditis; settings: at 18 months; conventional treatment plus colchicine 0.5-1.0 mg/d for 6 months; cited from earlier work
# [3] = test system: patients with clinically stable coronary disease; assay: LoDoCo Trial: colchicine 0.5 mg/day added to standard secondary prevention; assay type: in vivo, human
# Protocol: This study is described in PCT/AU2013/001261 and is hereby incorporated in its entirety by reference.
# All outcomes were evaluated by an experienced adjudicator blinded to the treatment allocation.
# Patients with a history of bypass surgery were only eligible if they had undergone bypass surgery more than 10 years before, or had angiographic evidence of graft failure or had undergone stenting since their bypass surgery. All patients signed informed consent before randomization.
# The randomization sequence was computer generated, kept concealed from the investigators at all times and was managed by a research assistant who had no involvement in the evaluation or management of study patients. […] Patients who were intolerant to therapy remained in the study, and were followed in the usual manner and included in the primary intention to treat analysis.
# The drug was dispensed by their usual chemist, and if requested, patients were reimbursed for the cost of these scripts. All other treatments were continued as usual.
# Patient compliance with treatment and outcome data were collected at routine follow up visits and at the time of any unplanned hospital admission. An acute coronary syndrome (ACS) was defined as either (a) Acute Myocardial Infarction (AMI), as evidenced by acute ischemic chest pain associated with a rise in serum troponin above the upper limit of normal or (b) Unstable Angina (UA), as evidenced by a recent acceleration of the patient's angina unassociated with a rise in serum troponin but associated with angiographic evidence of a change in the patient's coronary anatomy. (Unstable Angina Braunwald classification types IB and IIB). The ACS was characterized as being stent-related if there was evidence of significant in-stent stenosis or acute stent thrombosis. Out of Hospital Cardiac Arrest was defined as either a sudden death as evidenced on the patient's death certificate, or a non-fatal out of hospital cardiac arrest, defined as a recovery from sudden collapse associated with documented asystole, ventricular tachycardia or ventricular fibrillation. Noncardioembolic ischemic stroke was defined as CT or MRI proven ischemic stroke adjudged by the treating neurologist as not being due to atrial fibrillation or intracranial hemorrhage.
# The primary efficacy outcome was the composite, ACS, fatal or non-fatal out of hospital cardiac arrest or non-cardio-embolic ischemic stroke. Secondary outcomes were (a) individual components of the primary outcome, and (b) the components of ACS unrelated to stent disease.
# The pre-specified study duration was a minimum follow up of two years in all patients. Accordingly the study was closed on May 31, 2012. During May, all living patients were contacted by phone to collect compliance and outcome data from the last date of follow-up.
# Summary statistics, including mean and standard deviation were calculated for all baseline characteristics by treatment arm. All time to event outcomes were calculated in days by subtracting the date of randomization from either: (1) the date of event or death; or (2) the trial termination date for those patients not experiencing the defined event. As pre-specified, the primary efficacy analysis was based on the intention-to-treat principle. The intention-to-treat analysis included all randomized subjects and all events during the time from randomization to the trial termination. Trial termination date was fixed as May 31, 2012. A secondary pre-specified on-treatment analysis was also performed, based on patients who were both tolerant and compliant to therapy beyond the first month of randomization.
# The time-to-first-event for all outcomes is presented using a Kaplan-Meier plot. […] The secondary outcomes were analysed similarly.
# [4] = test system: patients with clinically stable coronary disease; settings: 0.5 mg/day in addition to statins; Nidorf et al., JACC 2013; cited from earlier work
compound,measurement,setting,value
"COc1cc2c(c(OC)c1OC)-c1ccc(OC)c(=O)cc1[C@@H](NC(C)=O)CC2 [colchicine, N[5,6,7,9-tetrahydro-1,2,3,10-tetratmethoxy 9-oxobenzo[a]heptalen-7-yl],(S)-acetamide]",recurrence rate,[1],10.7%
same,recurrence rate (actuarial rate),[2],24.0%
same,patients with AMI (ACS unrelated to stent disease),"[3]; 0.5 mg/day, 4/282",1.4%
same,patients with UA (ACS unrelated to stent disease),"[3]; 0.5 mg/day, 5/282",1.8%
same,patients with an ACS unrelated to stent disease,"[3]; 0.5 mg/day, 9/282",3.2%
same,patients presenting with an ACS,"[3]; 0.5 mg/day, 13/282",4.6%
same,"patients with primary outcome (ACS, out of hospital cardiac arrest or non-cardio-embolic ischemic stroke)","[3]; 0.5 mg/day, intention to treat, 15/282, median follow up 36 months",5.3%
same,patients reporting early intolerance due to gastrointestinal side effects,[3]; 32 of 282 randomized to treatment,11%
same,patients who died,"[3]; colchicine group, all of non-cardiac causes, 10 in control group",4 patients
same,out of hospital cardiac arrest and non-cardio-embolic ischemic stroke,[3]; treatment group vs control,infrequent but were also reduced
same,prevention of cardiovascular events,[4],appeared effective
